Patent US10160747B2, “Compounds and methods for kinase modulation, and indications therefor” (Plexxikon Inc., priority 2016, dated 2018)

Columns and labels:
[1] = tested on: MOLM-14 D835Y (endogenous FLT3 ITD and transfected FLT3 D835Y); assay: MOLM-14 D835Y cell proliferation assay (CellTiter-Glo); format: cell-based; conditions: Homo sapiens, MOLM-14, 72 h; 3 d growth, GMean
In short: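 MOLM-14 cells (FLT3 ITD) carrying D835Y or F691L, 1×10^4 cells/well, eight 1:3 dilutions from 1 μM final, 0.2% DMSO, 3 days at 37 °C, 5% CO2. Viability by CellTiter-Glo luminescence (ATP content); IC50 from concentration-response.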

c-KIT = target: T1, c-KIT (Homo sapiens, UniProt P10721); assay: c-KIT recombinant enzyme kinase assay (AlphaScreen); format: biochemical; conditions: 100 ATP, 8 pt
T1 construct: purchased Millipore 14-559K
In short: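 Substrate 30 nM biotin-GG(EEEEY)10EE; ATP 10 μM (FLT3-ITD, FLT3-D835Y) or 100 μM (c-KIT). Detection: AlphaScreen PY20 kit, 10 μg/mL beads, RT 20 + 60 min. Readout 580 nm; IC50.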

T1 sequence (P10721 26-976): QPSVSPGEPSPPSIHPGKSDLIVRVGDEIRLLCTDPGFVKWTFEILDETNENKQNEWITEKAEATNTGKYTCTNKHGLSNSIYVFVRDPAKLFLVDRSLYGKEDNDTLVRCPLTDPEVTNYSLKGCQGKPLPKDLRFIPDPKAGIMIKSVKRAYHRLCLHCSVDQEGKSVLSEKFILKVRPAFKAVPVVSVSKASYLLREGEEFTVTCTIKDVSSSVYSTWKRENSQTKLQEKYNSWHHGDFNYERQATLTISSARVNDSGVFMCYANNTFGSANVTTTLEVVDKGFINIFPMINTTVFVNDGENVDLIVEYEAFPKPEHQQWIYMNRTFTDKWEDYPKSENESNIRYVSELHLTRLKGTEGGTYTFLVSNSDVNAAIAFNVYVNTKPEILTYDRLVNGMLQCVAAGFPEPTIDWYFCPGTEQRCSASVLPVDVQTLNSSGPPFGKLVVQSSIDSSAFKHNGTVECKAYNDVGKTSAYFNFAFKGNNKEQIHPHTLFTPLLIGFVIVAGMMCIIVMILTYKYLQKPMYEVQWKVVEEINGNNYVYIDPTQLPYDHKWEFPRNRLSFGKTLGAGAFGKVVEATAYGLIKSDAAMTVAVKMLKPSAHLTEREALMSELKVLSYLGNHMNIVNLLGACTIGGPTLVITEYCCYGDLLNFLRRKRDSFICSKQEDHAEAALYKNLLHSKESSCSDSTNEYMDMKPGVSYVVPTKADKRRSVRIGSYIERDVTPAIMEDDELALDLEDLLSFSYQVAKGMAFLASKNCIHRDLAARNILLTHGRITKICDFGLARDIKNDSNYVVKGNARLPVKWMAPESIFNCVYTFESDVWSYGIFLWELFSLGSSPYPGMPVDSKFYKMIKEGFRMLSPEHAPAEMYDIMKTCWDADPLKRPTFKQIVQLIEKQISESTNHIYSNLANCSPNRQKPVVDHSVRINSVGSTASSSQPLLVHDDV

IC50 [1] | IC50 (c-KIT) | Structure (SMILES)
0.0001 to 10 µM | 0.0001 to 10 µM | O=C(Cc1ccc(-c2cnc(Nc3cnn(C4CC4)c3)nc2)cc1F)Nc1cnc(Cl)c(C(F)(F)F)c1 [Compound P-0240, N-[6-chloro-5-(trifluoromethyl)-3-pyridyl]-2-[4-[2-[(1-cyclopropylpyrazol-4-yl)amino]pyrimidin-5-yl]-2-fluoro-phenyl]acetamide]
0.0001 to 10 µM | 0.0001 to 10 µM | COc1ncc(NC(=O)Cc2ccc(-c3cnc(Nc4cnn(C5CC5)c4)nc3)cc2F)cc1C(F)(F)F [Compound P-0241, 2-[4-[2-[(1-cyclopropylpyrazol-4-yl)amino]pyrimidin-5-yl]-2-fluoro-phenyl]-N-[6-methoxy-5-(trifluoromethyl)-3-pyridyl]acetamide]
0.0001 to 10 µM | 0.0001 to 10 µM | O=C(Cc1ccc(-c2cnc(Nc3cnn(C4CC4)c3)nc2)cc1F)Nc1ccc(C(F)(F)F)nc1 [Compound P-0242, 2-[4-[2-[(1-cyclopropylpyrazol-4-yl)amino]pyrimidin-5-yl]-2-fluoro-phenyl]-N-[6-(trifluoromethyl)-3-pyridyl]acetamide]
0.0001 to 10 µM | 0.0001 to 10 µM | O=C(Cc1ccc(-c2cnc(Nc3cnn(C4CC4)c3)nc2)cc1F)Nc1ccc(C(F)(F)F)cn1 [Compound P-0243, 2-[4-[2-[(1-cyclopropylpyrazol-4-yl)amino]pyrimidin-5-yl]-2-fluoro-phenyl]-N-[5-(trifluoromethyl)-2-pyridyl]acetamide]
0.0001 to 10 µM | 0.0001 to 10 µM | O=C(Cc1ccc(-c2cnc(Nc3cnn(C4CC4)c3)nc2)cc1F)Nc1cc(C(F)(F)F)ccn1 [Compound P-0244, 2-[4-[2-[(1-cyclopropylpyrazol-4-yl)amino]pyrimidin-5-yl]-2-fluoro-phenyl]-N-[4-(trifluoromethyl)-2-pyridyl]acetamide]
0.0001 to 10 µM | 0.0001 to 10 µM | CCn1cc(Nc2ncc(-c3ccc(CC(=O)Nc4cnc(OC)c(C(F)(F)F)c4)cc3F)cn2)cn1 [Compound P-0246, 2-[4-[2-[(1-ethylpyrazol-4-yl)amino]pyrimidin-5-yl]-3-fluoro-phenyl]-N-[6-methoxy-5-(trifluoromethyl)-3-pyridyl]acetamide]
0.0001 to 10 µM | 0.0001 to 10 µM | CCn1cc(Nc2ncc(-c3cc(F)c(CC(=O)Nc4cnc(OC)c(C(F)(F)F)c4)cc3F)cn2)cn1 [Compound P-0247, 2-[4-[2-[(1-ethylpyrazol-4-yl)amino]pyrimidin-5-yl]-2,5-difluoro-phenyl]-N-[6-methoxy-5-(trifluoromethyl)-3-pyridyl]acetamide]
0.0001 to 10 µM | 0.0001 to 10 µM | CCn1cc(Nc2ncc(-c3ccc(CC(=O)Nc4cnc(C)c(C(F)(F)F)c4)cc3F)cn2)cn1 [Compound P-0248, 2-[4-[2-[(1-ethylpyrazol-4-yl)amino]pyrimidin-5-yl]-3-fluoro-phenyl]-N-[6-methyl-5-(trifluoromethyl)-3-pyridyl]acetamide]
0.0001 to 10 µM | 0.0001 to 10 µM | CCn1cc(Nc2ncc(-c3cc(F)c(CC(=O)Nc4cnc(C)c(C(F)(F)F)c4)cc3F)cn2)cn1 [Compound P-0249, 2-[4-[2-[(1-ethylpyrazol-4-yl)amino]pyrimidin-5-yl]-2,5-difluoro-phenyl]-N-[6-methyl-5-(trifluoromethyl)-3-pyridyl]acetamide]
0.0001 to 10 µM | 0.0001 to 10 µM | CCn1cc(Nc2ncc(-c3ccc(CC(=O)Nc4cc(C(F)(F)F)ccn4)cc3)cn2)cn1 [Compound P-0250, 2-[4-[2-[(1-ethylpyrazol-4-yl)amino]pyrimidin-5-yl]phenyl]-N-[4-(trifluoromethyl)-2-pyridyl]acetamide]
0.0001 to 10 µM | 0.0001 to 10 µM | CCn1cc(Nc2ncc(-c3ccc(CC(=O)Nc4ccc(C(F)(F)F)cn4)cc3)cn2)cn1 [Compound P-0251, 2-[4-[2-[(1-ethylpyrazol-4-yl)amino]pyrimidin-5-yl]phenyl]-N-[5-(trifluoromethyl)-2-pyridyl]acetamide]
0.0001 to 10 µM | 0.0001 to 10 µM | CCn1cc(Nc2ncc(-c3ccc(CC(=O)Nc4ccc(C(F)(F)F)nc4)cc3)cn2)cn1 [Compound P-0252, 2-[4-[2-[(1-ethylpyrazol-4-yl)amino]pyrimidin-5-yl]phenyl]-N-[6-(trifluoromethyl)-3-pyridyl]acetamide]
0.0001 to 10 µM | 0.0001 to 10 µM | CCn1cc(Nc2ncc(-c3ccc(CC(=O)Nc4cnc(OC)c(C(F)(F)F)c4)cc3)cn2)cn1 [Compound P-0253, 2-[4-[2-[(1-ethylpyrazol-4-yl)amino]pyrimidin-5-yl]phenyl]-N-[6-methoxy-5-(trifluoromethyl)-3-pyridyl]acetamide]
0.0001 to 10 µM | 0.0001 to 10 µM | CCn1cc(Nc2ncc(-c3ccc(CC(=O)Nc4cnc(C)c(C(F)(F)F)c4)cc3)cn2)cn1 [Compound P-0254, 2-[4-[2-[(1-ethylpyrazol-4-yl)amino]pyrimidin-5-yl]phenyl]-N-[6-methyl-5-(trifluoromethyl)-3-pyridyl]acetamide]
0.0001 to 10 µM | 0.0001 to 10 µM | CCn1cc(Nc2ncc(-c3ccc(CC(=O)Nc4cc(C(F)(F)F)ccn4)c(F)c3)cn2)cn1 [Compound P-0255, 2-[4-[2-[(1-ethylpyrazol-4-yl)amino]pyrimidin-5-yl]-2-fluoro-phenyl]-N-[4-(trifluoromethyl)-2-pyridyl]acetamide]
0.0001 to 10 µM | 0.0001 to 10 µM | CCn1cc(Nc2ncc(-c3ccc(CC(=O)Nc4ccc(C(F)(F)F)cn4)c(F)c3)cn2)cn1 [Compound P-0256, 2-[4-[2-[(1-ethylpyrazol-4-yl)amino]pyrimidin-5-yl]-2-fluoro-phenyl]-N-[5-(trifluoromethyl)-2-pyridyl]acetamide]
0.0001 to 10 µM | 0.0001 to 10 µM | CCn1cc(Nc2ncc(-c3ccc(CC(=O)Nc4ccc(C(F)(F)F)nc4)c(F)c3)cn2)cn1 [Compound P-0257, 2-[4-[2-[(1-ethylpyrazol-4-yl)amino]pyrimidin-5-yl]-2-fluoro-phenyl]-N-[6-(trifluoromethyl)-3-pyridyl]acetamide]
0.0001 to 10 µM | 0.0001 to 10 µM | CCn1cc(Nc2ncc(-c3ccc(CC(=O)Nc4cncc(C(F)(F)F)c4)c(F)c3)cn2)cn1 [Compound P-0258, 2-[4-[2-[(1-ethylpyrazol-4-yl)amino]pyrimidin-5-yl]-2-fluoro-phenyl]-N-[5-(trifluoromethyl)-3-pyridyl]acetamide]
0.0001 to 10 µM | 0.0001 to 10 µM | CCn1cc(Nc2ncc(-c3ccc(CC(=O)Nc4cnc(OC)c(C(F)(F)F)c4)c(F)c3)cn2)cn1 [Compound P-0259, 2-[4-[2-[(1-ethylpyrazol-4-yl)amino]pyrimidin-5-yl]-2-fluoro-phenyl]-N-[6-methoxy-5-(trifluoromethyl)-3-pyridyl]acetamide]
0.0001 to 10 µM | 0.0001 to 10 µM | CCn1cc(Nc2ncc(-c3ccc(CC(=O)Nc4cnc(Cl)c(C(F)(F)F)c4)c(F)c3)cn2)cn1 [Compound P-0260, N-[6-chloro-5-(trifluoromethyl)-3-pyridyl]-2-[4-[2-[(1-ethylpyrazol-4-yl)amino]pyrimidin-5-yl]-2-fluoro-phenyl]acetamide]
0.0001 to 10 µM | 0.0001 to 10 µM | CCn1cc(Nc2ncc(-c3ccc(CC(=O)Nc4cnc(C)c(C(F)(F)F)c4)c(F)c3)cn2)cn1 [Compound P-0261, 2-[4-[2-[(1-ethylpyrazol-4-yl)amino]pyrimidin-5-yl]-2-fluoro-phenyl]-N-[6-methyl-5-(trifluoromethyl)-3-pyridyl]acetamide]
